Source: patent publication US8877775B2, “Substituted 2-aza-bicyclo[2.2.2]octane-3-carboxylic acid (benzyl-cyano-methyl)-amides inhibitors of cathepsin C” (Boehringer Ingelheim International GmbH, priority 2013, dated 2014)

Assays:
[1] = Metabolic stability with human liver microsomes; type: in vitro ADME; details: pH 7.6; pooled human liver microsomes, 37° C., 1 μM test compound, 1 mg/ml protein, NADPH; read-out: In vitro stability in human liver microsome incubations t1/2
Protocol: Determination of Metabolic Stability with Human Liver Microsomes
The metabolic degradation of the test compound is assayed at 37° C. with pooled human liver microsomes. The final incubation volume of 100 μl per time point contains TRIS buffer pH 7.6 (0.1 M), magnesium chloride (5 mM), microsomal protein (1 mg/ml) and the test compound at a final concentration of 1 μM. Following a short preincubation period at 37° C., the reactions are initiated by addition of beta-nicotinamide adenine dinucleotide phosphate, reduced form (NADPH, 1 mM) and terminated by transfering an aliquot into acetonitrile after different time points. Additionally, the NADPH-independent degradation is monitored in incubations without NADPH, terminated at the last time point. The [%] remaining test compound after NADPH independent incubation is reflected by the parameter c(control) (metabolic stability). The quenched incubations are pelleted by centrifugation (10′000 g, 5 min). An aliquot of the supernatant is assayed by LC-MS/MS for the amount of parent compound.
The half-life (t1/2 INVITRO) is determined by the slope of the semilogarithmic plot of the concentration-time profile. The intrinsic clearance (CL_[…]) is calculated by considering the amount of protein in the incubation: CL_[…][μl/min/mg protein]=(In 2/(half-life[min]*protein content[mg/ml]))*1′000. The half-life (t1/2 INVITRO) values of selected compounds in the metabolic stability assay described above are listed in the following table

[2] = system: Neutrophil elastase activity in U937 cells; test: Neutrophil elastase activity in U937 cytosolic lysate after incubation with test compound; type: cell-based; details: Homo sapiens, U-937; U937 cells incubated 48 hours with compound; NE activity in lysate; read-out: Reduction of NE-activity in U937 cells IC50
Protocol: Determination of Neutrophil Elastase Activity in U937 Cytosolic Lysate Preparation after Incubation with Test Compound Materials: Optiplate 384F were purchased from PerkinElmer (Prod. No. #6007270). 24 well Nunclon cell culture plates (No. 142475) and 96 well plates (No. 267245) were from Nunc. Dimethylsulfoxid (DMSO) was from Sigma (Prod. No. D8418). Nonidet-P40 (NP40) was from USBiological (Prod. No. N3500) Substrate, specific for Neutrophil elastase, was from Bachem (MeOSuc-Ala-Ala-Pro-Val-AMC; Prod. No. I-1270). Human neutrophil elastase was from Calbiochem (Prod. No. 324681) Buffers: Tris-buffer (100 mM Tris; 1M NaCL; pH 7.5) Tris-buffer+HSA 0.1%; Human Serum Albumin from Calbiochem (Cat#. 126658) Serine-protease buffer (20 mM Tris; 100 mM NaCL; pH 7.5)+0.1% HSA Serine protease lysis buffer: 20 mM Tris-HCL; 100 mM NaCl pH 7.5; +0.2% Nonidet-P40; PBS: phosphate buffered saline, without Ca and Mg, from Gibco Cell Culture: U937 from ECACC (Cat. No. 85011440) cultured in suspension at 37° C. and 5% CO2. Cell density: 0.2-1 Mio. Cells/ml. Medium: RPMI1640 GlutaMAX (No. 61870) with 10% FCS from Gibco Cell Seeding and Treatment: Compounds in 100% DMSO were diluted in Medium (—FCS) with 10% DMSO and further diluted according to the experiment planned. 20 μl of the compound solution was transferred in the respective wells of the 24 well plate and diluted with 2 ml cell suspension/well containing 1′10^5 cells/ml (final concentration of DMSO=0.1%). Compound dilution factor=100 Compounds (up to 7 concentrations) were tested in triplicates with 3 wells for the DMSO 0.1% control, incubated for 48 hours without medium change at 37° C., 5% CO2 and 95% relative to humidity. Cell Harvesting and Cell Lysate:
Transfer the cell suspension in 2.2 ml Eppendorf cups. Separate cells from medium by centrifugation (400×g; 5 min; RT); discard the supernatant. Resuspend in 1 ml PBS; centrifugation (400×g; 5 min; RT); wash cells twice with PBS. Add 100 μl Serin lysis buffer (ice cold) to the cell pellet; resuspend the pellet and store on ice for 15 minutes. Remove debris by centrifugation at 15000×g for 10 min at 4° C. Transfer 80-100 μl lysate supernatant in 96 well plate and store immediately at −80° C.
Neutrophil Elastase Activity Assay:
Frozen lysates were thawn at 37° C. for 10 minutes and stored on ice. Protein content was determined with Bradford protein assay. Lysates were diluted to 0.2-0.5 mg/ml protein in serine protease buffer+HSA.
Standard: NE (100 μg/ml stocksolution in Tris-buffer; stored at −80° C.) was diluted in Tris-buffer+HSA to 750 ng/ml, and further serially diluted 1:2 for the standard curve.
Buffer, blank, standard and lysate samples were transferred into 384 well plate
The increase in fluorescence (Ex360 nm/Em 460 nm) is determined over 30 minutes with a Molecular Device Spectramax M5 Fluorescence Reader. Kinetic Reduction (Vmax units/sec); 4 vmax points. The amount of neutrophil elastase (ng/ml) is calculated using the standard curve and the Spectramax software. The result is interpolated to ng/mg lysate protein using excel formula functions. […] IC50 is calculated using Graphpad Prism; nonlinear fitting (log(inhibitor) vs. response—Variable slope). The IC50 value is interpolated as the concentration of test compound which leads to a neutrophil elastase activity reduction of 50% (relative to the DMSO-treated control).

[3] = biological target: recombinant human Cathepsin K (Homo sapiens (Human), UniProt P43235); test: Inhibition of human Cathepsin K; type: biochemical; details: substrate Z-Gly-Pro-Arg-AMC 12.5 μM, 60 min, room temperature
Chain of recombinant human Cathepsin K (P43235 115-329): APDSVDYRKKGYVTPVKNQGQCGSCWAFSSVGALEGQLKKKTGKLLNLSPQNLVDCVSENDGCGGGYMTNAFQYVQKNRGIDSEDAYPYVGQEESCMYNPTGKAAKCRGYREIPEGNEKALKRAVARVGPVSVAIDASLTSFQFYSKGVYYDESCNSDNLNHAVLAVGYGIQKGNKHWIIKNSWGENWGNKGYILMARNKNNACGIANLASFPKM
Text: Inhibition of Human Cathepsin K
Materials: Microtiterplates (Optiplate-384 F were purchased from PerkinElmer (Prod. No. 6007270). The substrate Z-Gly-Pro-Arg-AMC was from Biomol (Prod.-No. P-142). L-Cysteine (Prod. No. 168149) was from Sigma. Sodium actetate was from Merck (Prod.-No. 6268.0250), EDTA was from Fluka (Prod.-No. 03680). The inhibitor E-64 was purchased from Sigma (Prod.-No. E3132). The recombinant human Cathepsin K proenzyme was purchased from Biomol (Prod. No. SE-367). All other materials were of highest grade commercially available.
The following buffers were used: Activation buffer: 32.5 mM sodium acetate, adjusted to pH 3.5 with HCl; Assay buffer: 150 mM sodium acetate, 4 mM EDTA, 20 mM L-Cysteine, adjusted to pH 5.5 with HCl,
To activate the proenzyme, 5 μl procathepsin K were mixed with 1 ul activation buffer, and incubated at room temperature for 30 min.
5 μL test compound (final concentration 0.1 nM to 100 μM) in aqua bidest (containing 4% DMSO, final DMSO concentration 1%) were mixed with 10 uL of Cathepsin K in assay buffer (final concentration 2 ng/μL) and incubated for 10 min. Then 5 μL of substrate in assay buffer (final concentration 12.5 μM) were added. The plates were then incubated at room temperature for is 60 min. Then, the reaction was stopped by adding 10 μL of E64 in assay buffer (final concentration 1 μM). The fluorescence in the wells was determined using a Molecular Devices SpectraMax M5 Fluorescence Reader (Ex 360 nm, Em 460 nm).
Each assay microtiter plate contains wells with vehicle controls (1% DMSO in bidest) as reference for non-inhibited enzyme activity (100% Ctl; high values) and wells with inhibitor (E64 in bidest+1% DMSO, final concentration 1 μM) as controls for background fluorescence (0% Ctl; low values). The analysis of the data was performed by calculating the percentage of fluorescence in the presence of test compound in comparison to the fluorescence of the vehicle control after subtracting the background fluorescence: (RFU(sample)−RFU(background))*100/(RFU(control)−RFU(background))
Data from these calculations were used to generate IC50 values for inhibition of Cathepsin K, respectively.

[4] = biological target: recombinant human DPPI (Cathepsin C) (Homo sapiens (Human), UniProt P53634); test: Inhibition of human DPPI (Cathepsin C); type: biochemical; details: substrate Gly-Arg-AMC 50 μM, 30 min, room temperature
Chain of recombinant human DPPI (Cathepsin C) (P53634 231-394): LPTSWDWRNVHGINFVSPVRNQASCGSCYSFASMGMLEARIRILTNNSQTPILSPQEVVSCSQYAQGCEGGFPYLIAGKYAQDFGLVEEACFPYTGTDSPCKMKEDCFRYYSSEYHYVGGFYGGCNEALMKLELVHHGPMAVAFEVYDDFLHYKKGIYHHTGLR
Chain of recombinant human DPPI (Cathepsin C) (P53634 395-463): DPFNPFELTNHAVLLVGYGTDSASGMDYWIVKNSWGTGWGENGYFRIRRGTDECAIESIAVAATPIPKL
Chain of recombinant human DPPI (Cathepsin C) (P53634 25-134): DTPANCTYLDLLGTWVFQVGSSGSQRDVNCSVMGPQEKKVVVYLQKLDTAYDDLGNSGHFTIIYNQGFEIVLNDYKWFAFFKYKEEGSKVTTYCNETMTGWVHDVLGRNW
Text: Inhibition of Human DPPI (Cathepsin C)
Materials: Microtiterplates (Optiplate-384 F) were purchased from PerkinElmer (Prod. No. 6007270). The substrate Gly-Arg-AMC was from Biotrend (Prod.-No. 808756 Custom peptide). Bovine serum albumin (BSA; Prod. No. A3059) and Dithiothreitol (DTT; Prod. No D0632) were from Sigma. TagZyme buffer was from Riedel-de-Haen (Prod.-No. 04269), NaCl was from Merck (Prod.-No. 1.06404.1000) and morpholinoethane sulfonic acid (MES), was from Serva (Prod.-No. 29834). The DPP1 inhibitor Gly-Phe-DMK was purchased from MP Biomedicals (Prod.-No. 03DK00625). The recombinant human DPPI was purchased from Prozymex. All other materials were of highest grade commercially available.
The following buffers were used: MES buffer: 25 mM MES, 50 mM NaCl, 5 mM DTT, adjusted to pH 6.0, containing 0.1% BSA; TAGZyme Buffer: 20 mM NaH2PO4, 150 mM NaCl adjusted to pH 6.0 with HCl
The recombinant human DPPI was diluted in TAGZyme buffer to 1 U/ml (38.1 μg/ml, respectively), and then activated by mixing in a 1:2 ratio with a Cysteamine aqueous solution (2 mM) and incubating for 5 min at room temperature.
Five uL test compound (final concentration 0.1 nM to 100 μM) in aqua bidest (containing 4% DMSO, final DMSO concentration 1%) were mixed with 10 μL of DPPI in MES buffer (final concentration 0.0125 ng/μL) and incubated for 10 min. Then, 5 μL of substrate in MES buffer (final concentration 50 μM) were added. The microtiter plates were then incubated at room temperature for 30 min. Then, the reaction was stopped by adding 10 μL of Gly-Phe-DMK in MES-buffer (final concentration 1 μM). The fluorescence in the wells was determined using a Molecular Devices SpectraMax M5 Fluorescence Reader (Ex 360 nm, Em 460 nm) or an Envision Fluorescence Reader (Ex 355 nm, Em 460 nm).
The analysis of the data was performed by calculating the percentage of fluorescence in the presence of test compound in comparison to the fluorescence of the vehicle control after subtracting the background fluorescence using the following formula: (RFU(sample)−RFU(background))*100/(RFU(control)−RFU(background))
Data from these calculations were used to generate IC50 values for inhibition of DPPI, respectively.

CS(=O)(=O)c1cc(-c2ccc(C[C@@H](C#N)NC(=O)[C@H]3NC4CCC3CC4)c(F)c2)ccc1C#N [Example 1, (2S)—N-[(1S)-1-cyano-2-[4-(4-cyano-3-methylsulfonyl-phenyl)-2-fluoro-phenyl]ethyl]-3-azabicyclo[2.2.2]octane-2-carboxamide]
half-life at 1 μM [1]: 2 h | IC50 [2]: 134 nM | IC50 [3]: 2700 nM

CN1C(=O)Cc2ccc(-c3ccc(C[C@@H](C#N)NC(=O)[C@H]4NC5CCC4CC5)cc3)cc21 [Example 6]
IC50 [4]: 52.2 nM

N#Cc1ccc(-c2ccc(C[C@@H](C#N)NC(=O)[C@H]3NC4CCC3CC4)cc2)cc1 [Example 9]
half-life at 1 μM [1]: > 2.17 h | IC50 [3]: 14800 nM | IC50 [4]: 73 nM

N#C[C@H](Cc1ccc(-c2ccc(S(N)(=O)=O)cc2)cc1)NC(=O)[C@H]1NC2CCC1CC2 [Example 13]
IC50 [3]: 10800 nM | IC50 [4]: 102 nM

N#C[C@H](Cc1ccc(-c2ccc3c(c2)CC(=O)N3)cc1)NC(=O)[C@H]1NC2CCC1CC2 [Example 14]
IC50 [4]: 103 nM

CS(=O)(=O)c1ccc(-c2ccc(C[C@@H](C#N)NC(=O)[C@H]3NC4CCC3CC4)cc2)cc1 [Example 15]
IC50 [4]: 110 nM

N#C[C@H](Cc1ccc(-c2ccc(C(N)=O)cc2)cc1)NC(=O)[C@H]1NC2CCC1CC2 [Example 16]
IC50 [4]: 118 nM

CS(=O)(=O)Nc1ccc(-c2ccc(C[C@@H](C#N)NC(=O)[C@H]3NC4CCC3CC4)cc2)cc1 [Example 17]
IC50 [3]: 6700 nM | IC50 [4]: 124 nM

N#C[C@H](Cc1ccc(-c2cccc(C(N)=O)c2)cc1)NC(=O)[C@H]1NC2CCC1CC2 [Example 18]
IC50 [3]: 9700 nM | IC50 [4]: 131 nM

N#C[C@H](Cc1ccc(-c2ccc3c(c2)CCNC3=O)cc1)NC(=O)[C@H]1NC2CCC1CC2 [Example 20]
IC50 [4]: 137 nM

COCCN1C(=O)Cc2ccc(-c3ccc(C[C@@H](C#N)NC(=O)[C@H]4NC5CCC4CC5)cc3)cc21 [Example 21]
IC50 [4]: 160 nM

CCS(=O)(=O)c1ccc(-c2ccc(C[C@@H](C#N)NC(=O)[C@H]3NC4CCC3CC4)cc2)cc1 [Example 22]
IC50 [4]: 164 nM

N#C[C@H](Cc1ccc(-c2cc(F)c(F)c(F)c2)cc1)NC(=O)[C@H]1NC2CCC1CC2 [Example 23]
IC50 [4]: 244 nM

N#Cc1cc(-c2ccc(C[C@@H](C#N)NC(=O)[C@H]3NC4CCC3CC4)cc2)ccn1 [Example 24]
IC50 [4]: 248 nM

CN1Cc2ccc(-c3ccc(C[C@@H](C#N)NC(=O)[C@H]4NC5CCC4CC5)c(F)c3)cc2C1 [Example 25]
IC50 [4]: 98 nM

CS(=O)(=O)c1ccc(-c2ccc(C[C@@H](C#N)NC(=O)C3NC4CCC3CC4)c(F)c2)cc1C#N (stereo partly drawn) [Example 26]
IC50 [4]: 27.8 nM

CN1Cc2cc(-c3ccc(C[C@@H](C#N)NC(=O)[C@H]4NC5CCC4CC5)c(F)c3)ccc2S1(=O)=O [Example 27]
IC50 [4]: 73.3 nM
